Legend:
Experiment in all cases: Nanosyn kinase profiling
Type in all cases: biochemical
Settings in all cases: read-out: Percentage inhibition; for inhibition at 0.1 µM: 0.1 µM inhibitor; for inhibition at 1 µM: 1 µM inhibitor
IKK-α = molecular target: T1, IKK-α (Homo sapiens, UniProt O15111)
T1 construct: purchased Nanosyn (enzymatic panel); SGC in-house recombinant human kinases (DSF panel); Invitrogen (ALK1-6)
T1 sequence (O15111 1-745): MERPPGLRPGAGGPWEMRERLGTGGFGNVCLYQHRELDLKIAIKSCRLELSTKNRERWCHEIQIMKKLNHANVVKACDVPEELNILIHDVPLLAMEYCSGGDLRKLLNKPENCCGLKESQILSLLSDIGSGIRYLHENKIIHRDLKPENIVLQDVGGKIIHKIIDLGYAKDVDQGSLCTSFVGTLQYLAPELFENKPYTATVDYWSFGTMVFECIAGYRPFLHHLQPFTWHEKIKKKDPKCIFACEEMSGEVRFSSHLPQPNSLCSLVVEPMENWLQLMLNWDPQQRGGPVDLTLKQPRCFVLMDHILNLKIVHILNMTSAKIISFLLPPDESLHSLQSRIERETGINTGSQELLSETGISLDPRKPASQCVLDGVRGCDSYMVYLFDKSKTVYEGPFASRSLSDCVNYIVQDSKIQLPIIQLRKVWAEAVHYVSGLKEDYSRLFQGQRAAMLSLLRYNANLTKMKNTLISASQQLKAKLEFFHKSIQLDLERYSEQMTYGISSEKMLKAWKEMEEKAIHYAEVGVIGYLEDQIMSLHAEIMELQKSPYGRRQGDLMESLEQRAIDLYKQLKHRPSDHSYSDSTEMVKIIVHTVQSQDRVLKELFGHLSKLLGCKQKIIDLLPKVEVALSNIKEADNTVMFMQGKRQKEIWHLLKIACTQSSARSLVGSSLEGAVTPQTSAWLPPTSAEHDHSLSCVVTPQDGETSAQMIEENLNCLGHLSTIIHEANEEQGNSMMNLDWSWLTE
In short: (§1)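 Percent inhibition of each kinase was measured with the inhibitor at 0.1 µM and at 1 µM, as part of a 200-kinase human selectivity panel.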

SGK3 = molecular target: T2, SGK3 (Homo sapiens, UniProt Q96BR1)
T2 construct: purchased Nanosyn (enzymatic panel); SGC in-house recombinant human kinases (DSF panel); Invitrogen (ALK1-6)
T2 sequence (Q96BR1 1-496): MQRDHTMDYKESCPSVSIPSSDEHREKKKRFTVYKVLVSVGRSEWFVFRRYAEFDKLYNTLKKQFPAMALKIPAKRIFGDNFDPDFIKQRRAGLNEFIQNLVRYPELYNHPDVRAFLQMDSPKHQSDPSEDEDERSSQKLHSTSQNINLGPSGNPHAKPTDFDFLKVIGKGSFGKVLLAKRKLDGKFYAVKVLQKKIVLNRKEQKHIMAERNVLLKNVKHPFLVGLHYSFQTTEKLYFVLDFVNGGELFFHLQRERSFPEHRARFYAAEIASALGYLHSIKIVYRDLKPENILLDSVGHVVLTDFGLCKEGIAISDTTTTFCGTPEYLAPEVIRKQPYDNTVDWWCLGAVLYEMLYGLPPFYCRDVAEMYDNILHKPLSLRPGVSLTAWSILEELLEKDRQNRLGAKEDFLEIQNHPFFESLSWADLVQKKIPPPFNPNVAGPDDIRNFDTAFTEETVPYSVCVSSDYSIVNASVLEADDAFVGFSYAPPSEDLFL
In short: as §1

ERBB2 = molecular target: T3, ERBB2 (Homo sapiens, UniProt P04626)
T3 construct: purchased Nanosyn (enzymatic panel); SGC in-house recombinant human kinases (DSF panel); Invitrogen (ALK1-6)
In short: as §1

CDK6/cycD3 = molecular target: T4, CDK6/cycD3 (Homo sapiens, UniProt Q00534)
T4 construct: purchased Nanosyn (enzymatic panel); SGC in-house recombinant human kinases (DSF panel); Invitrogen (ALK1-6)
In short: as §1

BMX = molecular target: T5, BMX (Homo sapiens, UniProt P51813)
T5 construct: purchased Nanosyn (enzymatic panel); SGC in-house recombinant human kinases (DSF panel); Invitrogen (ALK1-6)
T5 sequence (P51813 1-675): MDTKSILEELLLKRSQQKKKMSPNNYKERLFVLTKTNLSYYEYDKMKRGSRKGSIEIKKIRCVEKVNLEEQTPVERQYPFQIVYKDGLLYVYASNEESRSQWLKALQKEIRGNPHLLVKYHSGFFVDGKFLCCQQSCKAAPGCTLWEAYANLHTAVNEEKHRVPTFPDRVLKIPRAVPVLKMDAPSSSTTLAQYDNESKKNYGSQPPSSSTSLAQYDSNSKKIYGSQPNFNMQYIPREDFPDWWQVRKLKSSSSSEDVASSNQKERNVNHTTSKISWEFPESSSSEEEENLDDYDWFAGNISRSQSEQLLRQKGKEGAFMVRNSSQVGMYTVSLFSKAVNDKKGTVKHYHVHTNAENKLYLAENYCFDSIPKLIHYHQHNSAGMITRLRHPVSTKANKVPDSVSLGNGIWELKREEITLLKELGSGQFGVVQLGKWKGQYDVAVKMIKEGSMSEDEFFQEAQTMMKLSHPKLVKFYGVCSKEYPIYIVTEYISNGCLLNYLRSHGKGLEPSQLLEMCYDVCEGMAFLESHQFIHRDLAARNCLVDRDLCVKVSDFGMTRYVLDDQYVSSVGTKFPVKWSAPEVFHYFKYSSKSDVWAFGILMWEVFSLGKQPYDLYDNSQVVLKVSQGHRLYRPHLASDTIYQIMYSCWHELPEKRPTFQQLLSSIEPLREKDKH
In short: as §1

P38α = molecular target: T6, P38α (Homo sapiens, UniProt Q16539)
T6 construct: purchased Nanosyn (enzymatic panel); SGC in-house recombinant human kinases (DSF panel); Invitrogen (ALK1-6)
In short: as §1

SRC = molecular target: T7, SRC (Homo sapiens, UniProt P12931)
T7 construct: purchased Nanosyn (enzymatic panel); SGC in-house recombinant human kinases (DSF panel); Invitrogen (ALK1-6)
In short: as §1

T3 sequence (P04626 23-1255): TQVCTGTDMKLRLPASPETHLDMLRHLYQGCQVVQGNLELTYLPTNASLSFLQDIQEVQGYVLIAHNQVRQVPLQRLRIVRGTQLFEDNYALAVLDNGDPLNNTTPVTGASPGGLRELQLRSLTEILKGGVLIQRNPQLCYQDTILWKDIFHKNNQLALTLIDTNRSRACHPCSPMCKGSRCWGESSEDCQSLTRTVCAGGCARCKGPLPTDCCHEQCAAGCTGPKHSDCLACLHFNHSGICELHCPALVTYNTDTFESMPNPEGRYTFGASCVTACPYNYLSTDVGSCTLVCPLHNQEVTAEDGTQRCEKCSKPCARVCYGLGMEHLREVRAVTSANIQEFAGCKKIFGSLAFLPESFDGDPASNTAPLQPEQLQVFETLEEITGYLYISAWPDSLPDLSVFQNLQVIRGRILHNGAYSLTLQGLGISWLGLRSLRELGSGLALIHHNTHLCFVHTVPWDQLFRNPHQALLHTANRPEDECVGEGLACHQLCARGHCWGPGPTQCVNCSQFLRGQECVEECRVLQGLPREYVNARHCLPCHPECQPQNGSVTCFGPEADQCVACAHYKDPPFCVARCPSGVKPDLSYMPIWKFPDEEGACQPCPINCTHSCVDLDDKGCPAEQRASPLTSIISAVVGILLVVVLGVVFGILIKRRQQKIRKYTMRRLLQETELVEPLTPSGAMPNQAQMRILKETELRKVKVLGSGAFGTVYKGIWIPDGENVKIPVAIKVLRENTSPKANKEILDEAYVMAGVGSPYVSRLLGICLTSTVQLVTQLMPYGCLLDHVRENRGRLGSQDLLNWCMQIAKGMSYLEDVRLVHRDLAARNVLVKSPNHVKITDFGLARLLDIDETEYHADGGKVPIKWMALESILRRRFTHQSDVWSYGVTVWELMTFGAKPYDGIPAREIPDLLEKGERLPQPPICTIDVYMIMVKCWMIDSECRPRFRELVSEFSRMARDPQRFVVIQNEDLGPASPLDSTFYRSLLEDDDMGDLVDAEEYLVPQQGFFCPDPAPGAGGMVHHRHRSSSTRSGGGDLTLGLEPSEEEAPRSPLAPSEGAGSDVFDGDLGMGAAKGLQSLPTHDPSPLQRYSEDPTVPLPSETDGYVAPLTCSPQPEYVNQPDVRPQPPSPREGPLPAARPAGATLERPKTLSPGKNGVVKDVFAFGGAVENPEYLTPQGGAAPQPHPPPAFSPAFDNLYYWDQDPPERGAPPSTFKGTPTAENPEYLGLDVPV
T4 sequence (Q00534 whole entry): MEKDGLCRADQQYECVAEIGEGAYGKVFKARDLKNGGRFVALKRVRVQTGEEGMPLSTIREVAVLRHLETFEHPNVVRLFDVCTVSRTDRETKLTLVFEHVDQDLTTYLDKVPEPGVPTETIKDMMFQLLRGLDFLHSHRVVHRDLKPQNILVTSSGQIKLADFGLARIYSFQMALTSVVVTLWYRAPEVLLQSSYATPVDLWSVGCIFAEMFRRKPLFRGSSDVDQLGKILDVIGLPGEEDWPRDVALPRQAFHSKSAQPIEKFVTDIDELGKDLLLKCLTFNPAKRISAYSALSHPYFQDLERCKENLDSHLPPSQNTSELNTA
T4 sequence (P30281 whole entry partner): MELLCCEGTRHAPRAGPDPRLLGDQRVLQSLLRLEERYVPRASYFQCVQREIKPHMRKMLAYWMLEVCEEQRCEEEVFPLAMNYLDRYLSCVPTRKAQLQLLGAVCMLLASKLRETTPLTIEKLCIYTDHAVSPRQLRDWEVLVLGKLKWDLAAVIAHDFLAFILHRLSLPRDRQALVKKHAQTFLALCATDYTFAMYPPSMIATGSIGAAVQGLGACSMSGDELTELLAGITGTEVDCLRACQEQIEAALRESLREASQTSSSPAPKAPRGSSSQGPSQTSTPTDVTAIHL
T7 sequence (P12931 whole entry): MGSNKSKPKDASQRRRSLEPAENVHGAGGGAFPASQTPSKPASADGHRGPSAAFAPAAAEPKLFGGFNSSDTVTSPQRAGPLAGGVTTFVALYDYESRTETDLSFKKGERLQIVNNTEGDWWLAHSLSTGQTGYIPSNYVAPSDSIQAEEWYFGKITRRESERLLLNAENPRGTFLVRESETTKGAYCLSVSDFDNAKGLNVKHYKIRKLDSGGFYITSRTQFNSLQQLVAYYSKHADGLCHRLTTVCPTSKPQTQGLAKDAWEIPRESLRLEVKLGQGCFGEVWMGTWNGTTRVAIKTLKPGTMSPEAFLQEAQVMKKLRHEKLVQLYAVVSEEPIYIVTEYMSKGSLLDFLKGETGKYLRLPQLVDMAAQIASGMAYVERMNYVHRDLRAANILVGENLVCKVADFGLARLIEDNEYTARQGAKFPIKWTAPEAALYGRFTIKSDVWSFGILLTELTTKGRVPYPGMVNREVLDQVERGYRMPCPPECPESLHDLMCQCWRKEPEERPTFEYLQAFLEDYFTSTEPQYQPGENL
T6 sequence (Q16539 whole entry): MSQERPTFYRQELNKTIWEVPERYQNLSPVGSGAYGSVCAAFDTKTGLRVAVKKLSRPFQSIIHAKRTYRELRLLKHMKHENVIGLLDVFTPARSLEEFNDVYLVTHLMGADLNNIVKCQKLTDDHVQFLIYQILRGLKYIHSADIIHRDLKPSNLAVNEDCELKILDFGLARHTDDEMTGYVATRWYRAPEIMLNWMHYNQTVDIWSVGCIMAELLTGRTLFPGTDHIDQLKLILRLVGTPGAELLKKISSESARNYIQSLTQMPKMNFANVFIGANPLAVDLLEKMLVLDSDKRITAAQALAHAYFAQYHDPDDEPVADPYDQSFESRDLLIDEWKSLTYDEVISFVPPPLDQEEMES

Structure (SMILES)	inhibition at 0.1 µM (IKK-α)	inhibition at 1 µM (IKK-α)	inhibition at 0.1 µM (SGK3)	inhibition at 1 µM (SGK3)	inhibition at 0.1 µM (ERBB2)	inhibition at 1 µM (ERBB2)	inhibition at 0.1 µM (CDK6/cycD3)	inhibition at 1 µM (CDK6/cycD3)	inhibition at 0.1 µM (BMX)	inhibition at 1 µM (BMX)	inhibition at 0.1 µM (P38α)	inhibition at 1 µM (P38α)	inhibition at 0.1 µM (SRC)	inhibition at 1 µM (SRC)
COc1cc(-c2cc(-c3cccc(O)c3)cnc2N)cc(OC)c1OC [K02288, 3-[6-amino-5-(3,4,5-trimethoxy-phenyl)-pyridin-3-yl]-phenol]	7.4%	2.7%	-2%	-1%	-5%	-3%	1.7%	2.8%	0.5%	19%	-3%	1.5%	5.1%	40%
c1ccc2c(-c3cnn4cc(-c5ccc(N6CCNCC6)cc5)cnc34)ccnc2c1 [LDN-193189]	3%	-2%	1.6%	2.3%	2.1%	2.1%	7.2%	22%	0.2%	4%	4.4%	3.3%	8%	33%
